How the values were obtained:
Format in all cases: in vivo
[1] = tested on: Spodoptera littoralis (Egyptian Cotton Leafworm); assay: Spodoptera littoralis cotton leaf disc spray test; conditions: foliar, 72 h, 200 ppm spray on cotton leaf discs, L1 larvae, mortality, feeding behavior, growth regulation 3 DAT
Text: (§1) Cotton leaf discs were placed on agar in a 24-well microtiter plate and sprayed with test solutions at an application rate of 200 ppm. After drying, the leaf discs were infested with 5 to L1 larvae. The samples were checked for mortality, feeding behavior, and growth regulation 3 days after treatment (DAT). The following compounds gave at least 80% control of Spodoptera littoralis: A1, A2, A3, A4, A6, A9, A10, A11, A12, A13, A14, A15, A16, A19, A20, A22, A23, A25, A26, A27, B1, B2, B3, B5, B6, B7, B8, B9, B11, B12, B13, B15, B16, B18, B19, B20, B21, B22, B24, B26, B27, B28, C1, C2, C3, C4, C5, C6, C7, C8, C9, C10, C12, C13, C16, C19, C20, C21, C22, C23, D1, D2, D3, D4, D5, D6, D7, D8, D9, D10, D11, D12, D13, D14, D15, D16, D17, D18, D19, D20, D21, D22, D23, D24. Heliothis virescens (Tobacco Budworm): Eggs (0-24 h old) were placed in 24-well microtiter plate on artificial diet and treated with test solutions at an application rate of 200 ppm (concentration in well 18 ppm) by pipetting. After an incubation period of 4 days, samples were checked for egg mortality, larval mortality, and growth regulation. The following compounds gave at least 80% control of Heliothis virescens: A1, A2, A3, A4, A13, A15, A17, A19, A20, A22, A23, A25, A26, A28, B1, B2, B3, B5, B6, B7, B9, B11, B13, B15, B18, B19, B20, B21, B25, B26, B27, B28, C1, C2, C3, C4, C5, C6, C7, C8, C9, C10, C12, C14, C16, C17, C19, C20, C21, C22, D1, D2, D3, D4, D5, D6, D7, D8, D9, D10, D11, D12, D13, D14, D15, D16, D17, D18, D19, D20, D21, D22, D23, E1, E2, E3, E4, E5. Plutella xylostella (Diamond Back Moth): 24-well microtiter plate (MTP) with artificial diet was treated with test solutions at an application rate of 200 ppm (concentration in well 18 ppm) by pipetting. After drying, the MTP's were infested with L2 larvae (7-12 per well). After an incubation period of 6 days, samples were checked for larval mortality and growth regulation. The following compounds gave at least 80% control of Plutella xylostella: A1, A3, A4, A10, All, A15, A19, A23, A25, B1, B2, B3, B5, B6, B7, B8, B9, B11, B13, B15, B18, B19, B20, B21, B26, B27, B28, C1, C2, C3, C4, C6, C7, C8, C9, C12, C16, C19, C20, C22, D1, D2, D3, D4, D5, D6, D7, D8, D9, D10, D12, D13, D14, D15, D16, D17, D18, D19, D20, D21, D22, D23, E1, E3, E5. Diabrotica balteata (Corn Root Worm): A 24-well microtiter plate (MTP) with artificial diet was treated with test solutions at an application rate of 200 ppm (concentration in well 18 ppm) by pipetting. After drying, the MTP's were infested with L2 larvae (6-10 per well). After an incubation period of 5 days, samples were checked for larval mortality and growth regulation. The following compounds gave at least 80% control of Diabrotica balteata: A2, A3, A4, A9, A11, A12, A13, A14, A15, A17, A19, A21, A22, A23, A24, A25, A26, B1, B2, B3, B6, B7, B8, B11, B13, B14, B15, B18, B19, B20, B21, B22, B26, B28, C1, C2, C3, C4, C5, C6, C7, C8, C9, C10, C12, C14, C15, C16, C19, C20, C21, C22, C23, C26, D1, D2, D4, D5, D6, D7, D8, D9, D10, D12, D14, D15, D16, D17, D18, D19, D20, D21, D22, D23, E2, E3, E5. Thrips tabaci (Onion Thrips): Sunflower leaf discs were placed on agar in a 24-well microtiter plate and sprayed with test solutions at an application rate of 200 ppm. After drying, the leaf discs were infested with an […] population of mixed ages. After an incubation period of 7 days, samples were checked for mortality. The following compounds gave at least 80% control of Thrips tabaci: B1, B7, B11, B15, B18, B19, B28, D1, D2, D3, D4, D5, D6, D7, D8, D9, D10, D12, D16, D18, D19, D20, D21, D23. Tetranychus urticae (Two-Spotted Spider Mite): Bean leaf discs on agar in 24-well microtiter plates were sprayed with test solutions at an application rate of 200 ppm. After drying, the leaf discs are infested with mite populations of mixed ages. 8 days later, discs are checked for egg mortality, larval mortality, and adult mortality. […]

[2] = tested on: Heliothis virescens (Tobacco Budworm); assay: Heliothis virescens egg test on artificial diet; conditions: 96 h, 200 ppm (concentration in well 18 ppm), eggs 0-24 h old on artificial diet, egg mortality, larval mortality, growth regulation after 4 days
Text: as §1

[3] = tested on: Diabrotica balteata (Corn Root Worm); assay: Diabrotica balteata larvae test on artificial diet; conditions: 120 h, 200 ppm (concentration in well 18 ppm), L2 larvae, larval mortality and growth regulation after 5 days
Text: as §1

[4] = tested on: Plutella xylostella (Diamond Back Moth); assay: Plutella xylostella larvae test on artificial diet; conditions: 144 h, 200 ppm (concentration in well 18 ppm), L2 larvae, larval mortality and growth regulation after 6 days
Text: as §1

SMILES	pest or weed control at 200 ppm [1] [%]	pest or weed control at 200 ppm [2] [%]	pest or weed control at 200 ppm [3] [%]	pest or weed control at 200 ppm [4] [%]
CCCCC(=O)Nc1cccc(C2=NOC(c3cc(Cl)cc(Cl)c3)(C(F)(F)F)C2)c1 (stereo not shown) [A6, pentanoic acid {3-[5-(3,5-dichloro-phenyl)-5-trifluoromethyl-4,5-dihydro-isoxazol-3-yl]-phenyl}-amide]	≥ 80	–	–	–
Cc1ccccc1C(=O)Nc1cccc(C2=NOC(c3cc(Cl)cc(Cl)c3)(C(F)(F)F)C2)c1F (stereo not shown) [B2]	≥ 80	≥ 80	≥ 80	≥ 80
O=C(Nc1cccc(C2=NOC(c3cc(Cl)cc(Cl)c3)(C(F)(F)F)C2)c1F)c1ccccc1Cl (stereo not shown) [B3]	≥ 80	≥ 80	≥ 80	≥ 80
Cc1ccc(C(=O)Nc2cccc(C3=NOC(c4cc(Cl)cc(Cl)c4)(C(F)(F)F)C3)c2F)cc1 (stereo not shown) [B6]	≥ 80	≥ 80	≥ 80	≥ 80
O=C(Nc1cccc(C2=NOC(c3cc(Cl)cc(Cl)c3)(C(F)(F)F)C2)c1F)c1ccccc1 (stereo not shown) [B16]	≥ 80	–	–	–
O=C(Nc1cccc(C2=NOC(c3cc(Cl)cc(Cl)c3)(C(F)(F)F)C2)c1F)c1cccc(F)c1F (stereo not shown) [B21]	≥ 80	≥ 80	≥ 80	≥ 80
O=C(Nc1cccc(C2=NOC(c3cc(Cl)cc(Cl)c3)(C(F)(F)F)C2)c1F)c1ccc(F)cc1F (stereo not shown) [B22]	≥ 80	–	≥ 80	–
O=C(Nc1cccc(C2=NOC(c3cc(Cl)cc(Cl)c3)(C(F)(F)F)C2)c1F)c1ccccn1 (stereo not shown) [B25]	–	≥ 80	–	–
O=C(Nc1cccc(C2=NOC(c3cc(Cl)cc(Cl)c3)(C(F)(F)F)C2)c1F)c1cccnc1 (stereo not shown) [B26]	≥ 80	≥ 80	≥ 80	≥ 80
CSc1ccccc1C(=O)Nc1cccc(C2=NOC(c3cc(Cl)cc(Cl)c3)(C(F)(F)F)C2)c1F (stereo not shown) [B27]	≥ 80	≥ 80	–	≥ 80
N#Cc1ccc(C(=O)Nc2cc(C3=NOC(c4cc(Cl)cc(Cl)c4)(C(F)(F)F)C3)ccc2F)cc1 (stereo not shown) [C1]	≥ 80	≥ 80	≥ 80	≥ 80
O=C(Nc1cc(C2=NOC(c3cc(Cl)cc(Cl)c3)(C(F)(F)F)C2)ccc1F)c1ccccc1F (stereo not shown) [C5]	≥ 80	≥ 80	≥ 80	–
Cc1ccccc1C(=O)Nc1cc(C2=NOC(c3cc(Cl)cc(Cl)c3)(C(F)(F)F)C2)ccc1F (stereo not shown) [C6]	≥ 80	≥ 80	≥ 80	≥ 80
O=C(Nc1cc(C2=NOC(c3cc(Cl)cc(Cl)c3)(C(F)(F)F)C2)ccc1F)c1ccccc1Cl (stereo not shown) [C7]	≥ 80	≥ 80	≥ 80	≥ 80
O=C(Nc1cc(C2=NOC(c3cc(Cl)cc(Cl)c3)(C(F)(F)F)C2)ccc1F)c1ccc([N+](=O)[O-])cc1 (stereo not shown) [C8]	≥ 80	≥ 80	≥ 80	≥ 80
O=C(Nc1cc(C2=NOC(c3cc(Cl)cc(Cl)c3)(C(F)(F)F)C2)ccc1F)c1ccco1 (stereo not shown) [C13]	≥ 80	–	–	–
O=C(Nc1cc(C2=NOC(c3cc(Cl)cc(Cl)c3)(C(F)(F)F)C2)ccc1F)c1cccc(F)c1F (stereo not shown) [C23]	≥ 80	–	≥ 80	–
N#Cc1ccc(C2=NOC(c3cc(Cl)cc(Cl)c3)(C(F)(F)F)C2)cc1NC(=O)c1ccco1 (stereo not shown) [D13]	≥ 80	≥ 80	–	≥ 80
Cc1cc(NC(=O)c2ccc(C#N)cc2)cc(C2=NOC(c3cc(Cl)cc(Cl)c3)(C(F)(F)F)C2)c1 (stereo not shown) [E1]	–	≥ 80	–	≥ 80

From patent US8410145B2, “Insecticidal compounds” (Syngenta Crop Protection LLC, priority 2007, dated 2013)
